Experiments:
[1] = biological target: T1, rat vas deferens P2X receptor (Rattus norvegicus, UniProt P47824); test: radioligand binding in CHO cells stably transfected with rat vas deferens P2X receptor
T1 construct: cRNA in Xenopus oocytes; stably transfected CHO cells
T1 sequence (P47824 1-399): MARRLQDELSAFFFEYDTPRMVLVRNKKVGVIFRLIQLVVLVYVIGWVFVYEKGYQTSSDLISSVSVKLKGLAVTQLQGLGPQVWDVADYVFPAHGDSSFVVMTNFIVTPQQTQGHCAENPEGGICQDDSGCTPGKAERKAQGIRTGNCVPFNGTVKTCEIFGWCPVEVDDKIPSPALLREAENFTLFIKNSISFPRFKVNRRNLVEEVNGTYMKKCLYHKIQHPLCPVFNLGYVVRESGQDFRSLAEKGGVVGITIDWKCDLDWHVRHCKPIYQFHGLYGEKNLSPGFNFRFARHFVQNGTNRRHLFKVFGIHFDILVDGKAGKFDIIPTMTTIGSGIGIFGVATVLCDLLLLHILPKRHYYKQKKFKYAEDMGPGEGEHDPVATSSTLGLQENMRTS
Excerpt: CHO cells were stably transfected by a method used for other ion channels (Claudio, Meth. Enzymol. 207 391-408 (1992)). Transfection was confirmed by a) electro-physiological recording and b) radioligand binding. […] [^3 H]αβmethyleneATP binding was more than 600 cpm per million transfected cells with less than 80 cpm nonspecific binding.

[2] = biological target: T2, rat superior cervical ganglion P2X receptor (clone 3) (Rattus norvegicus, UniProt P51577); test: functional properties of cloned P2X receptors (electrical recordings): clone 3; format: cell-based
T2 construct: The insert appeared to be a full length cDNA; expressed in transfected cells; host or cells: HEK293 cells transfected with pcDNA3 construct p464 (also oocytes injected with in vitro transcribed RNA)
T2 sequence (P51577 1-388): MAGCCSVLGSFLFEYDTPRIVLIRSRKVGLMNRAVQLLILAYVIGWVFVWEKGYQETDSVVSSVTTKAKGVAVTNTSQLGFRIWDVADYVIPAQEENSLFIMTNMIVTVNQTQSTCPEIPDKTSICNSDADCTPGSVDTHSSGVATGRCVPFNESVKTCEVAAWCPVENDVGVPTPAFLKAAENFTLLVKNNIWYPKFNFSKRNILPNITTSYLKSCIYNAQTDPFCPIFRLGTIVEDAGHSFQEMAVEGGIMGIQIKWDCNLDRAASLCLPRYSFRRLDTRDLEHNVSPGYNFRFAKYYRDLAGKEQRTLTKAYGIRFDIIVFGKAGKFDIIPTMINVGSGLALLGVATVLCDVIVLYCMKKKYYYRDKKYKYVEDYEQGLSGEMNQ
Description: (§1) HEK 293 cells were transfected by the lipofectin method (Felgner et al., Proc. Nat'l. Acad. Sci. USA 84 7413-7417 (1987)) with P2X -plasmid. DNA concentration used was 1 mg/2 ml medium placed into a 35 mm petri dish containing four 11 mm diameter coverslips on which HEK cells were placed at 10,000 cells per coverslip. […] Currents were recorded from HEK 293 cells using whole-cell recording methods and the AXOPATCH™ 200 amplifier (Axon Instruments); patch pipettes (5 M.OMEGA.) contained (mM) Cs or K aspartate 140, NaCl 5, EGTA 11, HEPES 5. The external solution was (mM) NaCl 150, KCl2, CaCl2 2, MgCl2 1, HEPES 5 and glucose 11; the pH and osmolarity of both solutions were maintained at 7.3 and 305 mosmol/l respectively. All recordings performed at room temperature. Data acquisition and analysis were performed using pCLAMP™ and AXOGRAPH™ software (Axon Instruments). […] The pH and osmolarity of the solutions were 7.4 and 295 mosmol/l respectively. For single channel measurements, a […]™ 500 amplifier and outside-out recording methods were used (Adelman et al., Neuron 9 209-216 (1992)). Wax-coated patch pipettes (5-10 M.OMEGA.) contained (mM) K-gluconate 115, HEPES 5, BAPTA 5 and MgCl2 0.5, external solution was 96 mM NaCl, 2 mM KCl, 1.8 mM CaCl2, 1 mM MgCl2, 5 mM Hepes pH 7.6, and 5 mM sodium pyruvate.
(§2) The functional characterisation of the clone illustrated in FIG. 2 (referred to herein as clone 3) was carried out by electrical recordings from transfected HEK293 cells and from oocytes injected with the in vitro transcribed RNA, as described in Example 4 for the rat vas deferens P2X receptor. Table A summarizes the main properties of clone 3 as compared to those of rat vas/human bladder cDNA clone, and the PC12 cDNA clone (provided by David Julius and Tony Brake of the University of California at San Francisco).

[3] = biological target: T3, PC12 P2X receptor (Rattus norvegicus, UniProt P49653); test: functional properties of cloned P2X receptors (electrical recordings): PC12; format: cell-based
T3 construct: host or cells: HEK293 cells (oocytes are also named for the functional characterisation of clone 3)
T3 sequence (P49653 1-472): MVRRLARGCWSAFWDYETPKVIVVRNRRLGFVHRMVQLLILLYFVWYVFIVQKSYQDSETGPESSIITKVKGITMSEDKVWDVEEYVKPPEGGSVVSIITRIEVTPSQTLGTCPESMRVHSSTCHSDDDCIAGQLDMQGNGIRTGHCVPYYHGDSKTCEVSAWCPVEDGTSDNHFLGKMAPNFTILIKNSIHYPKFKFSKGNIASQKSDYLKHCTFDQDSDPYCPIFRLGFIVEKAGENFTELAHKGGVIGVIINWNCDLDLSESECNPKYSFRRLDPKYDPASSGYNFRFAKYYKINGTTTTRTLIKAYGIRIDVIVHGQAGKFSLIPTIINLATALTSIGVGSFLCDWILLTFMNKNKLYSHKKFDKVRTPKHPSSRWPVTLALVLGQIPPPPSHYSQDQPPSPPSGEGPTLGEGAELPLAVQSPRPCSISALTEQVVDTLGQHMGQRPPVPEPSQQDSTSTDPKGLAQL
Description: as §1, §2

[4] = tested on: P2-purinoceptor; details: reported previously for suramin; cited from earlier work
[5] = tested on: mouse vas deferens; details: cited from earlier work
[6] = tested on: P2X mRNA; details: rat, RP2 mRNA; cited from earlier work

With [^3 H]αβmethyleneATP the binding [1] was “more than 600 cpm per million transfected cells” and the nonspecific binding [1] was “less than 80 cpm”.

For Cc1ccc(C(=O)Nc2ccc(S(=O)(=O)O)c3cc(S(=O)(=O)O)cc(S(=O)(=O)O)c23)cc1NC(=O)c1cccc(NC(=O)Nc2cccc(C(=O)Nc3cc(C(=O)Nc4ccc(S(=O)(=O)O)c5cc(S(=O)(=O)O)cc(S(=O)(=O)O)c45)ccc3C)c2)c1 [suramin], the “antagonist profile, clone 3 (block)” value ([2]; Table A, concentration not given) was < 40%, the “sensitivity of ATP-activated currents to antagonism, compared with rat vas deferens/human bladder and PC12 forms” value ([2]; clone 3 (FIG. 15)) was “much less sensitive to antagonism” and the IC50 [3] was 6 µM. For the same compound, the pA2 [4] was 5.9 and the pKB [5] was 5.2.

In the case of C[C@@H]1C[C@H]2[C@@H]3CCC4=CC(=O)C=C[C@]4(C)[C@@]3(F)[C@@H](O)C[C@]2(C)[C@@]1(O)C(=O)CO [dexamethasone], the “induction of P2X mRNA in immature thymocytes” value [6] is listed as “can be induced in immature thymocytes by dexamethasone”.
